Measured values from patent US11760773B2, “Small molecule drug conjugates of gemcitabine monophosphate” (MaveriX Oncology, Inc., priority 2018, dated 2023).
Like-named read-outs stand apart in the source and are kept apart here.

Assays:
[1] = Comparative plasma PK of Int 1-4 versus gemcitabine in mouse (study a); type: in vivo; conditions: CD-1 mice
[2] = Comparative plasma PK of Compound 1 versus Int 1-4 in male CD-1 mice (study b); type: in vivo; conditions: male, CD-1, mouse, iv; for Cmax: read-out: Cmax; for Tmax: read-out: Tmax
Description: Objectives: to compare the plasma pharmacokinetics and stability of Compound 1 with its non-phosphorylated SMDC analog (Int 1-4) and in plasma following a single intravenous infusion administration of Compound 1 at 11.6 mg/kg and 23.2 mg/kg with Int 1-4 (formulation F1 & F2) at 10.0 mg/kg in male CD-1 mice
PK measurements: compare PK parameters C0, CL, Vdss, Cmax, tmax, t1/2, AUC(0-t), AUC(0-inf), MRT(0-t), MRT(0-inf) for Compound 1 and Int 1-4

[3] = Int 1-4 and gemcitabine comparative PK in male cynomolgus monkey (study g); type: in vivo; conditions: for AUC(0-t) / C0 / clearance / half-life / AUC(0-inf) / MRT inf / MRT last / Vd: plasma, male cynomolgus monkey; for AUC(0-inf): read-out: AUC0-inf; for MRT inf: read-out: MRT0-inf; for MRT last: read-out: MRT0-last; for Vd: read-out: Vdss
Description: Objectives: to compare the plasma pharmacokinetics and stability of Int 1-4 versus gemcitabine in plasma following single intravenous infusion administration of Int 1-4 at 5 mg/kg and 10 mg/kg with equimolar gemcitabine at 2.65 mg/kg and 5.29 mg/kg in male cynomolgous monkeys
PK measurements: compare PK parameters C0, CL, Vdss, Cmax, tmax, t1/2, AUC(0-t), AUC(0-inf), MRT(0-t), MRT(0-inf) for Int 1-4 with gemcitabine

[4] = Comparative PK of Int 1-4 versus gemcitabine in rat plasma (study i); type: in vivo, Sprague-Dawley rats; conditions: Sprague-Dawley rat
Excerpt: PK measurements: compare PK parameters C0, CL, Vdss, Cmax, tmax, t1/2, AUC(0-t), AUC(0-inf), MRT(0-t), MRT(0-inf) for Int 1-4 and gemcitabine.

[5] = Int 1-4 dog plasma PK (study j); type: in vivo; conditions: male beagle dog; for AUC(0-inf): read-out: AUC0-inf; for MRT inf: read-out: MRT0-inf; for MRT last: read-out: MRT0-last; for Vd: read-out: Vdss
Description: Objectives: to compare the plasma pharmacokinetics and stability of Int 1-4 in plasma following single intravenous infusion administration of t 1-4 at 10 mg/kg and 20 mg/kg in the male Beagle dog.

[6] = Comparative dog plasma PK of Int 1-4 versus gemcitabine (study k); type: in vivo; conditions: male beagle dog; for AUC(0-inf): read-out: AUC0-inf; for MRT inf: read-out: MRT0-inf; for MRT last: read-out: MRT0-last; for Vd: read-out: Vdss
Description: Objectives: to compare the plasma pharmacokinetics and stability of Int-4 in plasma following single intravenous infusion administration of Int 1-4 at 5 mg/kg and 10 mg/kg versus gemcitabine at 5 mg/kg in the male Beagle dog

[7] = mouse, plasma, after iv Int 1-4 9.4 mg/kg
[8] = 10 mg/kg, after iv Int 1-4 10.0 mg/kg, Formulation 1
[9] = 10 mg/kg, after iv Int 1-4 10.0 mg/kg, Formulation 2
[10] = 11.6 mg/kg, after iv Compound 1 11.6 mg/kg
[11] = 23.2 mg/kg, after iv Compound 1 23.2 mg/kg
[12] = after iv Int 1-4 5 mg/kg (study g)
[13] = after iv Int 1-4 10 mg/kg (study g)
[14] = plasma, after iv Int 1-4 10.0 mg/kg
[15] = after iv Int 1-4 10 mg/kg (study j)
[16] = after iv Int 1-4 20 mg/kg (study j)
[17] = after iv Int 1-4 5 mg/kg (study k)
[18] = after iv Int 1-4 10 mg/kg (study k)

Compound: COc1cc(OC)c2oc(COC(=O)Nc3ccn([C@@H]4O[C@H](CO)[C@@H](O)C4(F)F)c(=O)n3)cc2c1 [Int 1-4, (5,7-di(methoxy)benzofuran-2-yl)methyl (1-((2R,4R,5R)-3,3-difluoro-4-hydroxy-5-(hydroxymethyl)tetrahydrofuran-2-yl)-2-oxo-1,2-dihydropyrimidin-4-yl)carbamate]
- plasma clearance and tissue uptake ([1]; after iv Int 1-4): quickly clears the plasma
- AUC(0-t) [1, 7]: 4980 ng·h/mL
- C0 [1, 7]: 78000 ng/mL
- clearance [1, 7]: 27.1 mL/min/kg
- half-life [1, 7]: 63.6 min
- AUC(0-inf) ([1]; mouse, plasma, after iv Int 1-4 9.4 mg/kg, read-out: AUC0-inf): 5000 ng·h/mL
- MRT inf ([1]; mouse, plasma, after iv Int 1-4 9.4 mg/kg, read-out: MRT0-inf): 20.8 min
- MRT last ([1]; mouse, plasma, after iv Int 1-4 9.4 mg/kg, read-out: MRT0-last): 19.7 min
- Vd ([1]; mouse, plasma, after iv Int 1-4 9.4 mg/kg, read-out: Vdss): 0.566 L/kg
- AUC0-inf/AUC0-last ([1]; plasma, after iv Int 1-4 9.4 mg/kg): 100%
- AUC(0-t) [2, 8]: 3620 ng·h/mL
- C0 [2, 8]: 33800 ng/mL
- clearance [2, 8]: 48.3 mL/min/kg
- half-life [2, 8]: 70.8 min
- AUC(0-inf) ([2]; 10 mg/kg, after iv Int 1-4 10.0 mg/kg, Formulation 1, read-out: AUC0-inf): 3630 ng·h/mL
- MRT inf ([2]; 10 mg/kg, after iv Int 1-4 10.0 mg/kg, Formulation 1, read-out: MRT0-inf): 45.4 min
- MRT last ([2]; 10 mg/kg, after iv Int 1-4 10.0 mg/kg, Formulation 1, read-out: MRT0-last): 43.4 min
- Vd ([2]; 10 mg/kg, after iv Int 1-4 10.0 mg/kg, Formulation 1, read-out: Vdss): 2.01 L/kg
- AUC(0-t) [2, 9]: 4210 ng·h/mL
- C0 [2, 9]: 43000 ng/mL
- clearance [2, 9]: 38.9 mL/min/kg
- half-life [2, 9]: 109 min
- AUC(0-inf) ([2]; 10 mg/kg, after iv Int 1-4 10.0 mg/kg, Formulation 2, read-out: AUC0-inf): 4290 ng·h/mL
- MRT inf ([2]; 10 mg/kg, after iv Int 1-4 10.0 mg/kg, Formulation 2, read-out: MRT0-inf): 59 min
- MRT last ([2]; 10 mg/kg, after iv Int 1-4 10.0 mg/kg, Formulation 2, read-out: MRT0-last): 47.8 min
- Vd ([2]; 10 mg/kg, after iv Int 1-4 10.0 mg/kg, Formulation 2, read-out: Vdss): 2.3 L/kg
- AUC(0-t) [2, 10]: 2570 ng·h/mL
- half-life [2, 10]: 58.4 min
- AUC(0-inf) ([2]; 11.6 mg/kg, after iv Compound 1 11.6 mg/kg, read-out: AUC0-inf): 2610 ng·h/mL
- Cmax [2, 10]: 20000 ng/mL
- MRT inf ([2]; 11.6 mg/kg, after iv Compound 1 11.6 mg/kg, read-out: MRT0-inf): 40.4 min
- MRT last ([2]; 11.6 mg/kg, after iv Compound 1 11.6 mg/kg, read-out: MRT0-last): 33.2 min
- Tmax [2, 10]: 1.5 min
- AUC(0-t) [2, 11]: 6370 ng·h/mL
- half-life [2, 11]: 55.8 min
- AUC(0-inf) ([2]; 23.2 mg/kg, after iv Compound 1 23.2 mg/kg, read-out: AUC0-inf): 6380 ng·h/mL
- Cmax [2, 11]: 29900 ng/mL
- MRT inf ([2]; 23.2 mg/kg, after iv Compound 1 23.2 mg/kg, read-out: MRT0-inf): 47.6 min
- MRT last ([2]; 23.2 mg/kg, after iv Compound 1 23.2 mg/kg, read-out: MRT0-last): 46.7 min
- Tmax [2, 11]: 1.5 min
- fold longer half-life than gemcitabine ([3]; male cynomolgus monkey plasma): ~50 fold
- AUC(0-t) [3, 12]: 5950 ng·h/mL
- C0 [3, 12]: 99700 ng/mL
- clearance [3, 12]: 14.6 mL/min/kg
- half-life [3, 12]: 45 min
- AUC(0-inf) [3, 12]: 5960 ng·h/mL
- MRT inf [3, 12]: 19.8 min
- MRT last [3, 12]: 19.2 min
- Vd [3, 12]: 0.287 L/kg
- AUC(0-t) [3, 13]: 11900 ng·h/mL
- C0 [3, 13]: 146000 ng/mL
- clearance [3, 13]: 15 mL/min/kg
- half-life [3, 13]: 59.4 min
- AUC(0-inf) [3, 13]: 11900 ng·h/mL
- MRT inf [3, 13]: 23.4 min
- MRT last [3, 13]: 22.8 min
- Vd [3, 13]: 0.349 L/kg
- stability in the rat (based on Cmax and AUC of free gemcitabine in plasma) ([4]; iv Int 1-4): unstable
- half-life ([4]; Sprague-Dawley, rat, plasma, iv, 10 mg/kg, plasma, after iv Int 1-4 10.0 mg/kg): 19.1 min
- AUC0-inf/AUC0-last [4, 14]: 101%
- AUC(0-inf) [4, 14]: 2010 ng·h/mL
- AUC(0-t) [4, 14]: 1990 ng·h/mL
- C0 [4, 14]: 29400 ng/mL
- clearance [4, 14]: 82.3 mL/min/kg
- MRT inf ([4]; plasma, after iv Int 1-4 10.0 mg/kg, read-out: MRT0-inf): 11.1 min
- MRT last ([4]; plasma, after iv Int 1-4 10.0 mg/kg, read-out: MRT0-last): 10.3 min
- Vd ([4]; plasma, after iv Int 1-4 10.0 mg/kg, read-out: Vdss): 0.905 L/kg
- AUC(0-t) [5, 15]: 4730 ng·h/mL
- C0 [5, 15]: 60500 ng/mL
- clearance [5, 15]: 35.2 mL/min/kg
- half-life [5, 15]: 32.4 min
- AUC(0-inf) [5, 15]: 4740 ng·h/mL
- MRT inf [5, 15]: 14.4 min
- MRT last [5, 15]: 13.8 min
- Vd [5, 15]: 0.504 L/kg
- AUC(0-t) [5, 16]: 7930 ng·h/mL
- C0 [5, 16]: 90900 ng/mL
- clearance [5, 16]: 43.3 mL/min/kg
- half-life [5, 16]: 31.2 min
- AUC(0-inf) [5, 16]: 7940 ng·h/mL
- MRT inf [5, 16]: 13.8 min
- MRT last [5, 16]: 13.2 min
- Vd [5, 16]: 0.58 L/kg
- AUC(0-t) [6, 17]: 2700 ng·h/mL
- C0 [6, 17]: 40000 ng/mL
- clearance [6, 17]: 30.8 mL/min/kg
- half-life [6, 17]: 15 min
- AUC(0-inf) [6, 17]: 2730 ng·h/mL
- Cmax ([6]; after iv Int 1-4 5 mg/kg (study k), read-out: Cmax): 30500 ng/mL
- MRT inf [6, 17]: 7.2 min
- MRT last [6, 17]: 6.6 min
- Vd [6, 17]: 0.23 L/kg
- AUC(0-t) [6, 18]: 7930 ng·h/mL
- C0 [6, 18]: 90900 ng/mL
- clearance [6, 18]: 43.3 mL/min/kg
- half-life [6, 18]: 31.2 min
- AUC(0-inf) [6, 18]: 7940 ng·h/mL
- MRT inf [6, 18]: 13.8 min
- MRT last [6, 18]: 13.2 min
- Vd [6, 18]: 0.58 L/kg
